Measurements as given in paper PMC6412891, “Synthesis and Biological Evaluation of Novel Thiazolyl-Coumarin Derivatives as Potent Histone Deacetylase Inhibitors with Antifibrotic Activity” (Molecules, 2019).

Legend:
HDAC6 human recombinant = biological target: T1, HDAC6 human recombinant (Homo sapiens, UniProt Q9UBN7); experiment: HDAC6 inhibitory activity, fluorometric kit; assay type: biochemical; conditions: Class II
T1 construct: purchased Enzo Life Science BML-AK516
T1 sequence (Q9UBN7 1-1215): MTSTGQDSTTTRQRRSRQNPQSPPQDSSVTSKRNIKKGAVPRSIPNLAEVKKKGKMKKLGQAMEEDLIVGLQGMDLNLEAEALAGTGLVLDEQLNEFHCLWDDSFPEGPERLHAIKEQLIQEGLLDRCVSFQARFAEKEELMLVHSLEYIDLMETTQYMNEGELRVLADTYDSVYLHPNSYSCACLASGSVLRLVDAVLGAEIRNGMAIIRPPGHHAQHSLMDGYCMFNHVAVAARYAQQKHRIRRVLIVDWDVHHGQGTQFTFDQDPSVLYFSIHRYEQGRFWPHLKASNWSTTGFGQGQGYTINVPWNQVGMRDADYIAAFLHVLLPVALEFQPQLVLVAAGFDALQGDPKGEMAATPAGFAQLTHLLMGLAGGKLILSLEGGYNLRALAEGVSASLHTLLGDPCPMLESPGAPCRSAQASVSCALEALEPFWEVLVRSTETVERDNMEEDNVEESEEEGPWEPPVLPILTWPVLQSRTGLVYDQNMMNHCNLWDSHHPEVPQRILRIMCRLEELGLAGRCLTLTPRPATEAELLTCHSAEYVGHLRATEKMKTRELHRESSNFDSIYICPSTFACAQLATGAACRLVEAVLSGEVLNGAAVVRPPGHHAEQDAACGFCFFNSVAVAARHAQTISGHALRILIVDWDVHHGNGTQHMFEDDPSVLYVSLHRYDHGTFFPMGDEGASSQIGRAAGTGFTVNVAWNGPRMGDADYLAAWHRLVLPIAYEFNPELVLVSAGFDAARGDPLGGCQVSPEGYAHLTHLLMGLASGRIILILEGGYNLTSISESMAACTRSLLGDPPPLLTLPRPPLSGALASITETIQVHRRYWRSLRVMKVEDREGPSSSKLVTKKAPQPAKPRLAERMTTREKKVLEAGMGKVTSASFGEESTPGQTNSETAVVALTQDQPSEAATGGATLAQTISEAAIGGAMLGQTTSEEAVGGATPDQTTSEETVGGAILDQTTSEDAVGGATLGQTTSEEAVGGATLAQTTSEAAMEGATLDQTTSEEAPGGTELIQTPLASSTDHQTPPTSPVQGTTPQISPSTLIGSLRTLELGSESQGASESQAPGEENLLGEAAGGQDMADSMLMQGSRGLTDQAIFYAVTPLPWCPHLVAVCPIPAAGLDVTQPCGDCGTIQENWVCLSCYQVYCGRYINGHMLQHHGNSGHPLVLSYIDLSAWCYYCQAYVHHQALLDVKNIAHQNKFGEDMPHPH

[1] = test system: procollagen type I expression in CFs; experiment: Procollagen type I expression levels in cardiac fibroblasts, western blot; assay type: cell-based, rat; conditions: for procollagen type I expression levels: 5 μM for 48 h, absence of TGF-β1, vs. control; for procollagen type I expression levels induced by TGF-β1: derivatives 5 μM (TSA 0.1 μM) for 48 h in presence of TGF-β1
Description: In CFs collagen type I secretion is a hallmark of cardiac fibrosis development, which is regulated by HDACs. […] For this purpose, a fixed concentration of 5a, 6a, 7a and 8a derivatives in presence/absence of TGF-β1 were studied, and procollagen type I expression levels were measured by using the western blot technique. TSA was used as control and also for comparative purposes. In Figure 5 (A and B), in the upper panel representative photographs of procollagen type I expression level and GAPDH (used as charge control) are shown, whereas in the lower panel the graphic analyses are observed.
For the analysis of the protein expression of histone H4–acetylated (ac–H4) and total H4 histone, a number of 1 × 10^6 of CFs seeded in 60 mm plates was used, which were incubated with the inhibitory compounds at a concentration of 10 μM, in the absence/presence of TGF–β1(5ng/mL) for 4 h. Subsequently, total histones were extracted by the technique of saline precipitation (high salt extraction). Briefly, CFs were scraped from the plates with 1 mL of cold PBS transferring their contents to Eppendorf tubes to be centrifuged for 60 s at 1500 rpm at 4 °C and re–suspended in 400 μL of cold buffer A (10 mM 4-(2-hydroxyethyl)-1-piperazineethanesulfonic acid-KOH (HEPES-KOH) adjusted to pH 7.9, 1.5 mM MgCl2, 10 mM KCl, 0.5 mM dithiothreitol and 0.2 mM phenylmethylsulfonyl fluoride (PMSF). The suspension is left on ice for 10 min and then placed in the vortex for 10 s. The samples were centrifuged for 60 s, subsequently discarding the supernatant fraction. The obtained pellet was re-suspended in 60 μL of cold C buffer (20 mM HEPES-KOH adjusted to pH 7.9, 25% glycerol, 420 mM NaCl, 1.5 mM MgCl2, 0.2 mM EDTA, dithiothreitol 0.5 mM and 0.2 mM PMSF) and placed on ice for 20 min for saline precipitation. Cell debris is removed by centrifugation for 120 s at 1500 rpm at 4 °C and the supernatant fraction, which contains the DNA binding proteins, is stored at minus 20 °C. For the analysis of α–SMA and procollagen type I expression levels, 3×10^5 CFs seeded in 35 mm plates were used, which were incubated together with inhibitor compounds at a 5 μM, in the absence/presence of TGF–β1 (5 ng/mL) for 48 h. To obtain the total proteins, the CFs were washed three times with cold PBS, then scraped and lysed with 50 μL of radio inmuno-precipitation assay (RIPA) lysis buffer (10 mM Tris–HCl pH 7.2, 5 mM EDTA, 150 mM NaCl, Triton X–100 1%, sodium dodecyl sulfate (SDS) 0.1%, deoxycholate 1%, leupeptin 2 μg/mL, aprotinin 10mM, PMSF 1mM and Na3VO4 100μM). The solution was centrifuged for 15 min at 10,000 rpm and at 4 °C. The supernatant fraction containing the total proteins was stored at minus 20 °C. The concentration of proteins obtained was determined by spectrophotometry at 570 nm, using the Bradford method (Bio-Rad, Hercules, CA, USA).
CFs proteins (25 μg), were subjected to 10% sodium dodecyl sulfate-polyacrylamide gel electrophoresis and finally transferred onto a nitrocellulose membrane (Millipore, Billerica, MA, USA). The membrane was washed twice with tris–buffered saline solution containing 0.1% Tween 20 (TBST). After being blocked with TBST containing 5% nonfat milk for 40 min, the membrane was incubated with primary antibodies in TBST/1% nonfat milk at 4 °C overnight. The membrane was washed three times with TBST for a total of 15 min and then incubated with primary antibodies (ac–H4, H4 total, α-SMA, procollagen type I and GAPDH). Then the membrane was incubated with goat anti–rabbit or anti-mouse IgG antibodies conjugated with horseradish (diluted 1:1000) for 1 h at room temperature. Signals were developed with ECL reagents and exposure to photographic film.
Figure 5 CTz non–substituted inhibit procollagen type I expression levels in cardiac fibroblasts. […] (B) CFs were exposed to 5a, 6a, 7a and 8a at 5 μM for 48 h in presence of TGF–β1. Procollagen type I expression levels were measured by western blot. GAPDH was used as control load.

Row | Structure (SMILES) | IC50 (HDAC6 human recombinant) [nM] | procollagen type I expression levels [1] | procollagen type I expression levels induced by TGF-β1 [1]
1 | O=C(CCCCC1CCSS1)Nc1nc(-c2cc3ccccc3oc2=O)cs1 (centres unmarked) [Compound 5a, 5-[1,2]-Dithiolan-3-yl-N-[4-(2-oxo-2H-chromen-3-yl)-thiazol-2-yl]-pentanamide] | 153 ± 5.3 | decreased in a statistically significant manner | decreased, close to control levels
2 | O=C(Nc1nc(-c2cc3ccccc3oc2=O)cs1)c1ccc(O)c(O)c1 [Compound 6a] | 276 ± 20.9 | decreased in a statistically significant manner | decreased, close to control levels
3 | O=C(O)CCCCC(=O)Nc1nc(-c2cc3ccccc3oc2=O)cs1 [Compound 7a] | 5590 ± 184 | had no effect | –
4 | O=C(CCCCC(=O)Nc1nc(-c2cc3ccccc3oc2=O)cs1)NO [Compound 8a, 5-[4-(2-Oxo-2H-chromen-3-yl)-thiazol-2-yl-carbamoyl]-N-hydroxypentanamide] | 98.3 ± 3.5 | decreased in a statistically significant manner | decreased, close to control levels
